Patent US8933113B2 (Merck Sharp & Dohme Corp., priority 2011, dated 2015)

Target: T1, full-length human Mineralocorticoid Receptor (MR) (Homo sapiens, UniProt P08235)
T1 construct: host or cells: PathHunter CHO-K1 cells
T1 sequence (P08235 1-984): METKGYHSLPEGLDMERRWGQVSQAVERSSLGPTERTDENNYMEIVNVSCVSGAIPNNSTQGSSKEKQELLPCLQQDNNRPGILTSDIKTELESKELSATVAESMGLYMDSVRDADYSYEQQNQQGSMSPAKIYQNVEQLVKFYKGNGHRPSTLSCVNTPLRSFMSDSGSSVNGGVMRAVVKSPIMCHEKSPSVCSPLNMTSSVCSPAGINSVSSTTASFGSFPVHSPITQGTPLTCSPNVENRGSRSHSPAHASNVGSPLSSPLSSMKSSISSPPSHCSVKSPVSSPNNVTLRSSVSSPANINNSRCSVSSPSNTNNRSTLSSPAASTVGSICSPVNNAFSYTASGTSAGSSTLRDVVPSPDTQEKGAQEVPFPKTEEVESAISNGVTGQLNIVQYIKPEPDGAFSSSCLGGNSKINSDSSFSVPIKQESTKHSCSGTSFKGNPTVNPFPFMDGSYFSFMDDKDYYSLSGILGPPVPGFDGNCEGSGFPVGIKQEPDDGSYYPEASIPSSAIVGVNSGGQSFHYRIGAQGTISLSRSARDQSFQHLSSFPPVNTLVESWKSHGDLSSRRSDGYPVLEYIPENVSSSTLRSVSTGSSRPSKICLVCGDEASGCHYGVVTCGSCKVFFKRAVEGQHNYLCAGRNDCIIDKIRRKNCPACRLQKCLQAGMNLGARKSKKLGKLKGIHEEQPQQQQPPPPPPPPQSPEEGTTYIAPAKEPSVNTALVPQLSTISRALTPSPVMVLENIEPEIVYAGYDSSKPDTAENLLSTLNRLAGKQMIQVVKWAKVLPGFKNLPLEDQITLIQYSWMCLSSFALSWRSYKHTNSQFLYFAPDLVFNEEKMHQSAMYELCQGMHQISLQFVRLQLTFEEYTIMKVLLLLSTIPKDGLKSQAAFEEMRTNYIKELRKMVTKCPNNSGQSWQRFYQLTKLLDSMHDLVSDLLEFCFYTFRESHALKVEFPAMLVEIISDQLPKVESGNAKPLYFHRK
Test: human MR NH Pro assay (PathHunter Protein:Protein interaction assay), MR antagonist activity
Format: cell-based
Settings: PathHunter CHO-K1 cells overexpressing human MR; aldosterone about 0.3 nM; 6 hours at 37° C.; luminescence; read-out: Primary Assay IP rating (IP = inflection point for a given dose-response titration curve)
Source text: The activity of the compounds of the present invention regarding mineralocorticoid receptor antagonism can be evaluated using the following assay.
Assessment of MR Potency in HMR NH Pro Assay
The human MR NH Pro assay is a commercially available PathHunter™ Protein:Protein interaction assay (DiscoveRx; http://www.discoverx.com/nhrs/prod-nhrs.php) that measures the ability of compounds to antagonize full-length human Mineralocorticoid Receptor (MR) binding to a coactivator peptide.
6. Test compounds are titrated starting at 4.4 mM, 10-point titration in 1:3 dilution.
3. Add 5 μL 6× agonist (final aldosterone concentration should be about 0.3 nM to about 1.0 nM) to all wells (using the PlateMate Plus.)
• (ThermoFisher) (except those wells in columns 23 and 24) 4. Add 5 uL of assay media to all wells in column 23 and 24. 5. Incubate 6 hrs at 37° C., 5% CO2. 6. Add 15 uL 3× DiscoveRx detection reagent to each well. 7. Incubate 1 hour at room temperature (keep plates stored in the dark). 8. Read plates on Envision (PerkinElmer) luminesence plate reader and analyze using ADA.

| Compound | IC50 |
| --- | --- |
| CCC(C=C(C)C#N)(c1ccc(Cl)cc1)n1ccc2c(NS(C)(=O)=O)cccc21 (mixture of isomers) [Compound 131, N-(1-(3-(4-chlorophenyl)-5-cyanohex-4-en-3-yl)-1H-indol-4-yl)methanesulfonamide] | < 100 nM |
| CCC(c1ccc(Cl)cc1)(n1ccc2c(NS(C)(=O)=O)cc(F)cc21)C(C)(C)O (single isomer, unassigned) [Compound 90, N-(1-(3-(4-chlorophenyl)-2-hydroxy-2-methylpentan-3-yl)-6-fluoro-1H-indol-4-yl)methane sulfonamide] | < 100 nM |
| CCC(COC)(c1ccc(Cl)cc1)n1ccc2c(NS(C)(=O)=O)cccc21 (single isomer, unassigned) [Compound 96, N-(1-(2-(4-chlorophenyl)-1-methoxybutan-2-yl)-1H-indol-4-yl)methanesulfonamide] | < 100 nM |
| CCC(C(C)=O)(c1ccc(C(F)(F)F)cc1)n1ccc2c(NS(C)(=O)=O)cccc21 (single isomer, unassigned) [Compound 102, N-(1-(2-oxo-3-(4-(trifluoromethyl)phenyl)pentan-3-yl)-1H-indol-4-yl)methanesulfonamide] | 100 to 500 nM |
| CCC(C(C)=O)(c1ccc(C(F)(F)F)cc1)n1ccc2c(NS(C)(=O)=O)cccc21 (single isomer, unassigned) [Compound 103, N-(1-(2-oxo-3-(4-(trifluoromethyl)phenyl)pentan-3-yl)-1H-indol-4-yl)methanesulfonamide] | 100 to 500 nM |
| CCC(c1ccc(Cl)cc1)(C(C)O)n1ccc2c(NS(C)(=O)=O)cc(F)cc21 (single isomer, unassigned) [Compound 111, N-(1-(3-(4-chlorophenyl)-2-hydroxypentan-3-yl)-6-fluoro-1H-indol-4-yl)methanesulfonamide] | < 100 nM |
| CCC(c1ccc(C(F)(F)F)cc1)(C(C)O)n1ccc2c(NS(C)(=O)=O)cccc21 (single isomer, unassigned) [Compound 113, N-(1-(2-hydroxy-3-(4-(trifluoromethyl)phenyl)pentan-3-yl)-1H-indol-4-yl)methanesulfonamide] | < 100 nM |
| CCC(c1ccc(C(F)(F)F)cc1)(C(C)O)n1ccc2c(NS(C)(=O)=O)cccc21 (single isomer, unassigned) [Compound 114, N-(1-(2-hydroxy-3-(4-(trifluoromethyl)phenyl)pentan-3-yl)-1H-indol-4-yl)methanesulfonamide] | < 100 nM |
| CCC(c1ccc(C(F)(F)F)cc1)(C(C)O)n1ncc2c(NS(C)(=O)=O)cccc21 (single isomer, unassigned) [Compound 115, N-(1-(2-hydroxy-3-(4-(trifluoromethyl)phenyl)pentan-3-yl)-1H-indazol-4-yl)methanesulfonamide] | < 100 nM |
| CCC(CC#N)(c1ccc(Cl)cc1)n1ccc2c(NS(C)(=O)=O)cccc21 (single isomer, unassigned) [Compound 121, N-(1-(2-(4-chlorophenyl)-1-cyanobutan-2-yl)-1H-indol-4-yl)methanesulfonamide] | < 100 nM |
| CCC(CC#N)(c1ccc(Cl)cc1)n1ccc2c(NS(C)(=O)=O)cccc21 (single isomer, unassigned) [Compound 122, N-(1-(2-(4-chlorophenyl)-1-cyanobutan-2-yl)-1H-indol-4-yl)methanesulfonamide] | < 100 nM |
| CCC(CC#N)(c1ccc(Cl)cc1)n1ccc2c(NS(C)(=O)=O)cc(F)cc21 (single isomer, unassigned) [Compound 124, N-(1-(2-(4-chlorophenyl)-1-cyanobutan-2-yl)-6-fluoro-1H-indol-4-yl)methanesulfonamide] | 100 to 500 nM |

Now from value to molecule:

| IC50 | Compound |
| --- | --- |
| < 100 nM | CCC(CO)(c1ccc(Cl)cc1)n1ncc2c(NS(C)(=O)=O)cccc21 (single isomer, unassigned) [Compound 88, N-(1-(2-(4-chlorophenyl)-1-hydroxybutan-2-yl)-1H-indazol-4-yl)methanesulfonamide] |
| < 100 nM | CCC(c1ccc(Cl)cc1)(n1ccc2c(NS(C)(=O)=O)cccc21)C(C)(C)O (single isomer, unassigned) [Compound 91, N-(1-(3-(4-chlorophenyl)-2-hydroxy-2-methylpentan-3-yl)-1H-indol-4-yl)methane sulfonamide] |
| < 100 nM | CCC(c1ccc(Cl)cc1)(n1ncc2c(NS(C)(=O)=O)cccc21)C(C)(C)O (single isomer, unassigned) [Compound 92, N-(1-(3-(4-chlorophenyl)-2-hydroxy-2-methylpentan-3-yl)-1H-indazol-4-yl)methane sulfonamide] |
| < 100 nM | CCC(c1ccc(C(F)(F)F)cc1)(n1ncc2c(NS(C)(=O)=O)cccc21)C(C)(C)O (single isomer, unassigned) [Compound 93, N-(1-(2-hydroxy-2-methyl-3-(4-(trifluoromethyl)phenyl)pentan-3-yl)-1H-indazol-4-yl)methane sulfonamide] |
| < 100 nM | CCC(COC)(c1ccc(Cl)cc1)n1ncc2c(NS(C)(=O)=O)cccc21 (single isomer, unassigned) [Compound 97, N-(1-(2-(4-chlorophenyl)-1-methoxybutan-2-yl)-1H-indazol-4-yl)methanesulfonamide] |
| < 100 nM | CCC(C(C)=O)(c1ccc(Cl)cc1)n1ncc2c(NS(C)(=O)=O)cccc21 (single isomer, unassigned) [Compound 100, N-(1-(3-(4-chlorophenyl)-2-oxopentan-3-yl)-1H-indazol-4-yl)methanesulfonamide] |
| 100 to 500 nM | CCC(C(C)=O)(c1ccc(Cl)cc1)n1ncc2c(NS(C)(=O)=O)cccc21 (single isomer, unassigned) [Compound 101, N-(1-(3-(4-chlorophenyl)-2-oxopentan-3-yl)-1H-indazol-4-yl)methanesulfonamide] |
| 100 to 500 nM | CCC(C(C)=O)(c1ccc(C(F)(F)F)cc1)n1ncc2c(NS(C)(=O)=O)cccc21 (single isomer, unassigned) [Compound 104, N-(1-(2-oxo-3-(4-(trifluoromethyl)phenyl)pentan-3-yl)-1H-indazol-4-yl)methanesulfonamide] |
| < 100 nM | CCC(c1ccc(Cl)cc1)(C(C)O)n1ncc2c(NS(C)(=O)=O)cccc21 (single isomer, unassigned) [Compound 106] |
| < 100 nM | CCC(c1ccc(Cl)cc1)(C(C)O)n1ncc2c(NS(C)(=O)=O)cccc21 (single isomer, unassigned) [Compound 107] |
| < 100 nM | CCC(c1ccc(Cl)cc1)(C(C)O)n1ccc2c(NS(C)(=O)=O)cccc21 (single isomer, unassigned) [Compound 108, N-(1-(3-(4-chlorophenyl)-2-hydroxypentan-3-yl)-1H-indol-4-yl)methanesulfonamide] |
| < 100 nM | CCC(c1ccc(Cl)cc1)(C(C)O)n1ccc2c(NS(C)(=O)=O)cccc21 (single isomer, unassigned) [Compound 109, N-(1-(3-(4-chlorophenyl)-2-hydroxypentan-3-yl)-1H-indol-4-yl)methanesulfonamide] |
| < 100 nM | CCC(c1ccc(C(F)(F)F)cc1)(C(C)O)n1ncc2c(NS(C)(=O)=O)cccc21 (single isomer, unassigned) [Compound 116, N-(1-(2-hydroxy-3-(4-(trifluoromethyl)phenyl)pentan-3-yl)-1H-indazol-4-yl)methanesulfonamide] |
| < 100 nM | CCC(c1ccc(C(F)(F)F)cc1)(C(C)O)n1ncc2c(NS(C)(=O)=O)cccc21 (single isomer, unassigned) [Compound 117, N-(1-(2-hydroxy-3-(4-(trifluoromethyl)phenyl)pentan-3-yl)-1H-indazol-4-yl)methanesulfonamide] |
| < 100 nM | CCC(CC#N)(c1ccc(Cl)cc1)n1ncc2c(NS(C)(=O)=O)cccc21 (single isomer, unassigned) [Compound 123, N-(1-(2-(4-chlorophenyl)-1-cyanobutan-2-yl)-1H-indazol-4-yl)methanesulfonamide] |
